Assay results reported in patent EP2077105A1, “Ophthalmic Micellar Compositions with Enhanced Stability” (Novagali Pharma S.A., priority 2008, dated 2009).

Experiment: Zeta potential of emulsion surface
Assay type: physicochemical
Settings: 0.02% BAK and 0.002% CKC in emulsion
From the text: All the eye drops were supplied by Novagali Pharma (Evry, France) and were sterile with physiological pH and osmolality. The present Applicants chose to compare 0.02% BAK to 0.002% CKC since these two QAC concentrations confer equivalent positive charge to the emulsion surface (zeta potential around 20 mV).

zeta potential: around 20 mV
SMILES: CCCCCCCCCCCCCCCC[N+](C)(C)Cc1ccccc1 [Cetalkonium chloride, cetalkonium chloride]
